Measured values reported in patent US9839642B2, “Beta-tetrazolyl-propionic acids as metallo-beta-lactamase inhibitors” (priority 2014, dated 2017).

Tests used:
VIM-1 = VIM-1 (Pseudomonas aeruginosa, UniProt A0A0F7KYQ8); assay: Enzyme activity: determination of IC50, fluorescence assay with CCF2-FA substrate; assay type: biochemical; conditions: enzyme 30 pM, CCF2-FA 1.25 μM, 2 hours at 25° C.; read-out: VIM1 IC50
In short: (§1)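 Read-out: fluorescence, ex 405 nm / em 460 nm, after 2 h at 25° C with 1.25 μM CCF2-FA. Buffer 100 mM KH2PO4 pH 7, 0.005% Tween-20, 10 μM ZnSO4; enzyme 1 pM NDM-1, 2 pM IMP-1, 30 pM VIM-1. IC50 by 4-parameter fit.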

IMP-1 = IMP-1 (Serratia marcescens, UniProt P52699); assay: as above; assay type: biochemical; conditions: enzyme 2 pM, CCF2-FA 1.25 μM, 2 hours at 25° C.; read-out: IMP1 IC50
Chain of IMP-1 (P52699 19-246, looked up, species assumed): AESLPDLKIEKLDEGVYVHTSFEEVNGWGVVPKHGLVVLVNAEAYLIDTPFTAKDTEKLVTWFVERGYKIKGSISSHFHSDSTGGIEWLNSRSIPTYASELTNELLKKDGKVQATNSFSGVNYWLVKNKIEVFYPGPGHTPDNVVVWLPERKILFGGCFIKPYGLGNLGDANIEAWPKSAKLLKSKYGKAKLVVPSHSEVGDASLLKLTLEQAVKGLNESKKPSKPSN
In short: as §1

NDM-1 = NDM-1 (Klebsiella pneumoniae, UniProt C7C422); assay: as above; assay type: biochemical; conditions: enzyme 1 pM, CCF2-FA 1.25 μM, 2 hours at 25° C.; read-out: NDM1 IC50
Chain of NDM-1 (C7C422 29-270, looked up, species assumed): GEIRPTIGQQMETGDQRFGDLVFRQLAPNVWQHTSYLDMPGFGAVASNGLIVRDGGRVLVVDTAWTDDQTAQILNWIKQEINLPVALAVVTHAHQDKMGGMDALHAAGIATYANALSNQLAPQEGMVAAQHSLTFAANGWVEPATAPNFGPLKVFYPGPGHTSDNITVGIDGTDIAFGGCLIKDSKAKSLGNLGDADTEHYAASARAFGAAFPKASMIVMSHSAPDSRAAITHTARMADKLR
In short: as §1

[1] = test system: Klebsiella pneumoniae expressing VIM-1 (IHMA599644); assay: Antibiotic potentiation activity: synergistic concentration (MITC95) with imipenem, growth by OD600; assay type: cell-based; conditions: 95% inhibition of bacterial growth, strain IHMA599644
In short: (§2)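 Strains grown overnight at 35° C, resuspended in saline, diluted 1:100 into 1.1×CAMHB; imipenem at 1 μg/ml or 4 μg/ml with test compound 200 μM to 0.195 μM. Incubated 22 hours to 24 hours at 35° C, OD600 read; MITC95 is lowest compound concentration inhibiting 95% of growth.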

[2] = test system: Escherichia coli expressing NDM-1 (CLB30016); assay: as above; assay type: cell-based; conditions: 95% inhibition of bacterial growth, strain CLB30016
In short: as §2

[3] = test system: Serratia marcescens expressing IMP-1 (CL5741); assay: as above; assay type: cell-based; conditions: 95% inhibition of bacterial growth, strain CL5741
In short: as §2

| Compound | IC50 (VIM-1) | IC50 (IMP-1) | IC50 (NDM-1) | VIM1 KP599644 MITC95 [1] | NDM1 EC30016 MITC95 [2] | IMP1 SM5741 MITC95 [3] |
| --- | --- | --- | --- | --- | --- | --- |
| CC(C)[C@H](C(=O)O)[C@H](Cc1ccc(C2CCNC2)nc1)c1nnn[nH]1 (stereo partly drawn) [Example 105, (2S,3S)-2-isopropyl-4-(6-(pyrrolidin-3-yl)pyridin-3-yl)-3-(1H-tetrazol-5-yl)butanoic acid] | 0.02 µM | 14 µM | 0.17 µM | 12.5 µM | 3.1 µM | 50 µM |
| O=C(O)[C@@H](C1CCOC1)[C@H](Cc1ccc(C2CCNC2)cc1)c1nnn[nH]1 (stereo partly drawn) [Example 107, (2R,3S)-4-(4-(pyrrolidin-3-yl)phenyl)-2-(tetrahydrofuran-3-yl)-3-(1H-tetrazol-5-yl)butanoic acid] | 0.03 µM | 5.9 µM | 0.38 µM | 12.5 µM | 9.4 µM | 50 µM |
| CC(C)[C@H](C(=O)O)[C@H](Cc1csc(C2CCNC2)n1)c1nnn[nH]1 (stereo partly drawn) [Example 108, (2S,3S)-2-isopropyl-4-(2-(pyrrolidin-3-yl)thiazol-4-yl)-3-(1H-tetrazol-5-yl)butanoic acid] | 0.75 µM | > 20 µM | 2.8 µM | 37 µM | 12.5 µM | >200 µM |
| CC(C)[C@H](C(=O)O)[C@H](Cc1ccc(C2CCNC2)c(F)c1)c1nnn[nH]1 (stereo partly drawn) [Example 109, (2S,3S)-4-(3-fluoro-4-(pyrrolidin-3-yl)phenyl)-2-isopropyl 3-(1H-tetrazol-5-yl)butanoic acid] | 0.0012 µM | 0.45 µM | 0.017 µM | 4.7 µM | 3.1 µM | 12.5 µM |
| Cc1cc(C[C@H](c2nnn[nH]2)[C@@H](C(=O)O)C(C)C)ccc1C1CCNC1 (stereo partly drawn) [Example 110, (2S,3S)-2-isopropyl-4-(3-methyl-4-(pyrrolidin-3-yl)phenyl)-3-(1H-tetrazol-5-yl)butanoic acid] | 0.0044 µM | 1.4 µM | 0.024 µM | 6.2 µM | 4.7 µM | 18.8 µM |
| CCC[C@H](C(=O)O)[C@H](Cc1ccc(N)cn1)c1nnn[nH]1 [Example 111, (S)-2-((S)-2-(5-aminopyridin-2-yl)-1-(1H-tetrazol-5-yl)ethyl)pentanoic acid] | 0.077 µM | 7.7 µM | 0.23 µM | 5.5 µM | 0.49 µM | 44 µM |
| CC(C)C[C@H](C(=O)O)[C@H](Cc1ccc(N)nc1)c1nnn[nH]1 [Example 112, 2-amino-5-((2S,3S)-3-carboxy-5-methyl-2-(2H-tetrazol-5-yl)hexyl)pyridin-1-ium 2,2,2-trifluoroacetate] | 0.0049 µM | 0.57 µM | 0.11 µM | 5.5 µM | 0.54 µM | 11 µM |
| CC(C)C[C@H](C(=O)O)[C@H](Cc1ccc(N)cn1)c1nnn[nH]1 [Example 113, 5-amino-2-((2S,3S)-3-carboxy-5-methyl-2-(2H-tetrazol-5-yl)hexyl)pyridin-1-ium 2,2,2-trifluoroacetate] | 0.079 µM | 2.1 µM | 0.13 µM | 9.4 µM | 0.78 µM | 18.8 µM |
| CCC[C@H](C(=O)O)[C@H](Cc1ccc(N)nc1)c1nnn[nH]1 [Example 114, (S)-2-((S)-2-(6-aminopyridin-3-yl)-1-(1H-tetrazol-5-yl)ethyl)pentanoic acid] | 0.0062 µM | 3.7 µM | 0.18 µM | 2.3 µM | 0.39 µM | 18.8 µM |
| CCC[C@H](C(=O)O)[C@H](Cc1cnc(N)s1)c1nnn[nH]1 [Example 115, (2S)-2-[(1S)-2-(2-amino-1,3-thiazol-5-yl)-1-(1H-tetrazol-5-yl)ethyl]pentanoic acid] | 0.0065 µM | 1.5 µM | 0.17 µM | 9.4 µM | 0.78 µM | 25 µM |
| CC(C)C[C@H](C(=O)O)[C@H](Cc1cnc(N)s1)c1nnn[nH]1 [Example 116, (2S)2-[(1S)-2-(2-amino-1,3-thiazol-5-yl)-1-(1H-tetrazol-5-yl)ethyl]-4-methylpentanoic acid] | 0.0044 µM | 0.29 µM | 0.14 µM | 18.8 µM | 3.1 µM | 9.4 µM |
| CCC[C@H](C(=O)O)[C@H](Cc1cccc(N)n1)c1nnn[nH]1 [Example 117, (2S)-2-[(1S)-2-(6-aminopyridin-2-yl)-1-(1H-tetrazol-5-yl)ethyl]pentanoic acid] | 0.37 µM | > 20 µM | 1.3 µM | 18.8 µM | 1.6 µM | >200 µM |
| CCC[C@H](C(=O)O)[C@H](Cc1ccnc(N)c1)c1nnn[nH]1 [Example 118, (2S)-2-[(1S)-2-(2-aminopyridin-4-yl)-1-(1H-tetrazol-5-yl)ethyl]pentanoic acid] | 0.01 µM | > 20 µM | 1.1 µM | 6.2 µM | 2.3 µM | 200 µM |
| CC(C)C[C@H](C(=O)O)[C@H](Cc1ccc2ncc(N)cc2c1)c1nnn[nH]1 [Example 119, (S)-2-((S)-2-(3-aminoquinolin-6-yl)-1-(1H-tetrazol-5-yl)ethyl)-4-methylpentanoic acid] | 0.001 µM | 0.052 µM | 0.012 µM | 25 µM | 9.4 µM | 3.1 µM |
| CC(C)[C@H](C(=O)O)[C@H](Cc1ccc(N)nc1)c1nnn[nH]1 [Example 121, (2S,3S)-4-(6-aminopyridin-3-yl)-2-isopropyl-3-(1H-tetrazol-5-yl)butanoic acid] | 0.035 µM | 6 µM | 0.12 µM | 5.5 µM | 0.21 µM | 37 µM |
| Nc1ccc(C[C@H](c2nnn[nH]2)[C@@H](C(=O)O)C2CCCC2)cn1 [Example 122, (2S,3S)-4-(6-aminopyridin-3-yl)-2-cyclopentyl-3-(1H-tetrazol-5-yl)butanoic acid] | 0.0014 µM | 0.62 µM | 0.039 µM | 6.2 µM | 0.39 µM | 12.5 µM |
| CC(C)(C)[C@H](C(=O)O)[C@H](Cc1ccc(N)nc1)c1nnn[nH]1 [Example 123, (2R,3S)-4-(6-aminopyridin-3-yl)-2-(tert-butyl)-3-(1H-tetrazol-5-yl)butanoic acid] | 0.59 µM | > 20 µM | 1.1 µM | 50 µM | 3.1 µM | >200 µM |
| CC(C)[C@H](C(=O)O)[C@H](Cc1ccc(N[C@@H]2CCNC2)nc1)c1nnn[nH]1 [Example 124, (2S,3S)-2-isopropyl-4-(6-((R)-pyrrolidin-3-ylamino)pyridin-3-yl)-3-(1H-tetrazol-5-yl)butanoic acid] | 0.059 µM | 15 µM | 0.54 µM | 50 µM | 4.7 µM | 100 µM |
| CC(C)[C@H](C(=O)O)[C@H](Cc1ccc(N)cn1)c1nnn[nH]1 [Example 125, (2S,3S)-4-(5-aminopyridin-2-yl)-2-isopropyl-3-(1H-tetrazol-5-yl)butanoic acid] | 0.24 µM | 12 µM | 0.17 µM | 12.5 µM | 0.39 µM | 75 µM |
| CC(C)[C@H](C(=O)O)[C@H](Cc1ccc(N2CCC[C@H]2CO)nc1)c1nnn[nH]1 [Example 126, (2S,3S)-4-(6-((S)-2-(hydroxymethyl)pyrrolidin-1-yl)pyridin-3-yl)-2-isopropyl-3-(1H-tetrazol-5-yl)butanoic acid] | 0.034 µM | 0.53 µM | 0.063 µM | 50 µM | 6.2 µM | 25 µM |
| CC(C)[C@H](C(=O)O)[C@H](Cc1ccc(N2CCC[C@@H]2CO)nc1)c1nnn[nH]1 [Example 127, (2S,3S)-4-(6-((R)-2-(hydroxymethyl)pyrrolidin-1-yl)pyridin-3-yl)-2-isopropyl-3-(1H-tetrazol-5-yl)butanoic acid] | 0.28 µM | 10 µM | 0.32 µM | 200 µM | 12.5 µM | 200 µM |
